# Activity calls are given as the source filed them. The calls are words filed in the database; no cut-off is given here.
# Legend:
# [1] = Metabolic stability in human liver microsome assessed as half life; assay type: ADME; details: liver microsomes
# [2] = Metabolic stability in mouse liver microsome assessed as half life; assay type: ADME; details: liver microsomes
# [3] = target: T1, Nuclear receptor subfamily 1 group D member 1 (Homo sapiens, UniProt P20393); assay: Agonist activity at his6-tagged human REV-ERBalpha LBD (281 to 614 residues) expressed in Escherichia coli assessed as increase in SMRT corepressor peptide […] by TR-FRET assay incubated for 2 hrs by TR-FRET assay
# T1 sequence (P20393 whole entry): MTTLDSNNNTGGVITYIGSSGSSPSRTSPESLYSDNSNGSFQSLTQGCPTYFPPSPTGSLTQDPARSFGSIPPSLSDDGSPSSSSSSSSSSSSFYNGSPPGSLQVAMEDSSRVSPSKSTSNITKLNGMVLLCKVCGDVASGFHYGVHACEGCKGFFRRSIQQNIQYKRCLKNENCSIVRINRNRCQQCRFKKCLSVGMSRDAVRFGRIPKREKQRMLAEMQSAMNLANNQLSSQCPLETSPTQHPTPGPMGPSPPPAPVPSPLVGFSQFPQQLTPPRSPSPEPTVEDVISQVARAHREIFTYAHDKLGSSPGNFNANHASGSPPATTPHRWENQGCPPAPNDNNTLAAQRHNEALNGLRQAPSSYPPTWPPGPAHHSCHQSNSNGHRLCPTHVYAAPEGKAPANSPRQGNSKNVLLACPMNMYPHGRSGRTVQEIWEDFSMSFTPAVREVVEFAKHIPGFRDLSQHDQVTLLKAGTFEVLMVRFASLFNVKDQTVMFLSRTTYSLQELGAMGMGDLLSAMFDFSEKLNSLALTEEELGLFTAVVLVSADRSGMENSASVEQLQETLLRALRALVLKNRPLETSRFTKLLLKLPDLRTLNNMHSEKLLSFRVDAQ
# CYP3A4 = CYP3A4 (Homo sapiens, UniProt P08684); assay: Inhibition of CYP3A4 (unknown origin) at 10 uM relative to control; assay type: ADME
# CYP3A4, sequence (P08684 whole entry): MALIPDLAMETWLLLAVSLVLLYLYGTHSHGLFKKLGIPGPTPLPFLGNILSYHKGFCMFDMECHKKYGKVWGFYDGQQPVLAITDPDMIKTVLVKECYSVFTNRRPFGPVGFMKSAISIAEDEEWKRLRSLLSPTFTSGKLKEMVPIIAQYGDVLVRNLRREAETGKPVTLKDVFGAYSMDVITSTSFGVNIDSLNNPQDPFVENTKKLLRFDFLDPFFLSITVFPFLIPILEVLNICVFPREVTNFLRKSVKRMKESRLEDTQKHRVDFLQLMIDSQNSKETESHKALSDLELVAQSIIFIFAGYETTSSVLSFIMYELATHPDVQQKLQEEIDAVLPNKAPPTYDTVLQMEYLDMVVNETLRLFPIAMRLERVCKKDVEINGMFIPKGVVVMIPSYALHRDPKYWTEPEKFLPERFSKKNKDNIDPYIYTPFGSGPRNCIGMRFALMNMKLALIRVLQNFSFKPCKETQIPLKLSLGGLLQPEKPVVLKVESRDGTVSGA
# CYP2C9 = CYP2C9 (Homo sapiens, UniProt P11712); assay: Inhibition of CYP2C9 (unknown origin) at 10 uM relative to control; assay type: ADME
# CYP2C9, sequence (P11712 whole entry): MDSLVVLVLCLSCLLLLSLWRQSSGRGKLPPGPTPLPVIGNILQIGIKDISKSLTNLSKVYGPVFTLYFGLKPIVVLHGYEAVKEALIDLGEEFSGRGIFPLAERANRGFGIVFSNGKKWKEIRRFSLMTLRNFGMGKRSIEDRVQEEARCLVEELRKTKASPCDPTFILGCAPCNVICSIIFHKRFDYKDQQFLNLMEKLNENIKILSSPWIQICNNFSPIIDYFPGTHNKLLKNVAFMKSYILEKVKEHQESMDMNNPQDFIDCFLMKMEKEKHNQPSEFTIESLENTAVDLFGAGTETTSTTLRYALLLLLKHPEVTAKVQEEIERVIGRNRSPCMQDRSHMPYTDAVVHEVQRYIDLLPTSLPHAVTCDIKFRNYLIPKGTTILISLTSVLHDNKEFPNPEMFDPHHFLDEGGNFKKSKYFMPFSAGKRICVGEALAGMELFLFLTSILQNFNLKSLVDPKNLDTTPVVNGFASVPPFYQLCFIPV
# Th17 = assay: Downregulation of IL-17A expression in human Th17 cells; assay type: functional, cell-based; details: dose 1.25-10 µM
# [4] = target: T2, Nuclear receptor subfamily 1 group D member 2 (Homo sapiens) (UniProt Q14995); assay: Agonist activity at human REV-ERBbeta
# T2 sequence (whole entry): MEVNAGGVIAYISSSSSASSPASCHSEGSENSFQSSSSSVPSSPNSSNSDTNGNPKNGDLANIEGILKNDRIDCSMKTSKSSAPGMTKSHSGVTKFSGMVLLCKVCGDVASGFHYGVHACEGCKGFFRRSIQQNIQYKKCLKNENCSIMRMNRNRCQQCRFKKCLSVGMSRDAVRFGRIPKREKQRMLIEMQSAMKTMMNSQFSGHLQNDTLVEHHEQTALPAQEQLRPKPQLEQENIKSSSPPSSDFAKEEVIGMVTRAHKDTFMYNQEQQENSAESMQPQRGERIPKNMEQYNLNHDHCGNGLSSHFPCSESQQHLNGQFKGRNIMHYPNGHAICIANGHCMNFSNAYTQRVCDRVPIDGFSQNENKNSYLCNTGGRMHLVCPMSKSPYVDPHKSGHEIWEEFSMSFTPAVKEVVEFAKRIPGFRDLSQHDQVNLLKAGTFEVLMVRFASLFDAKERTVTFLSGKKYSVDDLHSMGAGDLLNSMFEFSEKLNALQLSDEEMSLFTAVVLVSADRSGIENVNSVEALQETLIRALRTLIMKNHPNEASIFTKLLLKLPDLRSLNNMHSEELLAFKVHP
# Mus musculus [5] = assay: Protection against experimental autoimmune encephalomyelitis C57BL/6 mouse model assessed as decrease in frequency of T cells at 25 to 50 mg/kg, ip bid by flow cytometry analysis; assay type: functional, organism-based; details: T-cell, dose 25-50 mg/kg
# [6] = Toxicity in experimental autoimmune encephalomyelitis C57BL/6 mouse model assessed as animal weight loss at 25 to 50 mg/kg, ip bid; assay type: organism-based; details: in vivo, dose 25-50 mg/kg
# Mus musculus [7] = assay: Protection against experimental autoimmune encephalomyelitis C57BL/6 mouse model assessed as disease onset at 25 to 50 mg/kg, ip bid; assay type: functional, organism-based; details: dose 25-50 mg/kg
# CYP2D6 = CYP2D6 (Homo sapiens, UniProt P10635); assay: Inhibition of CYP2D6 (unknown origin) at 10 uM relative to control; assay type: ADME
# CYP2D6, sequence (P10635 whole entry): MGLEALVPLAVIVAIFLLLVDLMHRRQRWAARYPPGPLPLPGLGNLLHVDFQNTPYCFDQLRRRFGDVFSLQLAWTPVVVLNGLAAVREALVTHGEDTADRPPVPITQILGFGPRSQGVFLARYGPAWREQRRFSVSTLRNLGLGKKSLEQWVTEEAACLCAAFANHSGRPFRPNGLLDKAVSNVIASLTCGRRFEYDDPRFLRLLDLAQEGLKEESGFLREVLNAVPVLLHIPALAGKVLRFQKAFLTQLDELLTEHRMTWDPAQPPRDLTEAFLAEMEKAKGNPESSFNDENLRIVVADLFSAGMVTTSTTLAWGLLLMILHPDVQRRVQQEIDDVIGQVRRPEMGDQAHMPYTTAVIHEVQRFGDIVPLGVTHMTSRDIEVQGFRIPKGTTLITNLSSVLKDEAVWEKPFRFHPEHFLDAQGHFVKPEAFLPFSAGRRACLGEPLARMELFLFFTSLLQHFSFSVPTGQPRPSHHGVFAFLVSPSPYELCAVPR
# [8] = Cmax in mouse at 50 mg/kg, ip measured for 12 hrs; assay type: ADME, organism-based; design: time 12 hrs, dose 50 mg/kg, route ip; details: in vivo
# Mus musculus [9] = assay: In-vivo agonist activity at REV-ERBalpha in experimental autoimmune encephalomyelitis C57BL/6 mouse model assessed as reduction in bmal1 mRNA expression by RT-PCR analysis; assay type: functional
# [10] = Cytotoxicity against human Th17 cells assessed as reduction in cell viability at 1.25 to 10 uM; assay type: toxicity, cell-based; details: th17, 10 µM, dose 1.25-10 µM
# CYP1A2 = target: T3, CYP1A2 (Homo sapiens, UniProt P05177); assay: Inhibition of CYP1A2 (unknown origin) at 10 uM relative to control; assay type: ADME
# T3 sequence (P05177 whole entry): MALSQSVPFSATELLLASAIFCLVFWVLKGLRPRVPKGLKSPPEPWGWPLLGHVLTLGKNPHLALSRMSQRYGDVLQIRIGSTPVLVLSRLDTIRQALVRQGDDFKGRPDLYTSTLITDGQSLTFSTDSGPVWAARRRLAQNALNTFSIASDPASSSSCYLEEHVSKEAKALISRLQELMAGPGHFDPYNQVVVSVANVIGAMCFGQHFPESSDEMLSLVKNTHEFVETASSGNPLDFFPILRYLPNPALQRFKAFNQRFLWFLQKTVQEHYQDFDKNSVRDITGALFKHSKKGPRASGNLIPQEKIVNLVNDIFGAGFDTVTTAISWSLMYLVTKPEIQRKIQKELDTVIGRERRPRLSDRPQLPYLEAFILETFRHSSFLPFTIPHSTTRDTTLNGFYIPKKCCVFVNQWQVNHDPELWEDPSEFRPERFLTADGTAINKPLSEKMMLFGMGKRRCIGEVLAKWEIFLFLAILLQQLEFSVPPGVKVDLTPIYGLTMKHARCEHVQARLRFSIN
# [11] = Cmax in mouse at 50 mg/kg, ip measured at 2 hrs; assay type: ADME, organism-based; design: dose 50 mg/kg, time 2 hrs, route ip; details: in vivo
# Mus musculus [12] = assay: Protection against experimental autoimmune encephalomyelitis C57BL/6 mouse model assessed as reduction in disease severity at 25 to 50 mg/kg, ip bid; assay type: functional, organism-based; details: dose 25-50 mg/kg
# Mus musculus [13] = assay: Protection against experimental autoimmune encephalomyelitis C57BL/6 mouse model assessed as decrease in number of T cells at 25 to 50 mg/kg, ip bid by flow cytometry analysis; assay type: functional, organism-based; details: T-cell, dose 25-50 mg/kg
# Mus musculus [14] = assay: In-vivo agonist activity at REV-ERBalpha in experimental autoimmune encephalomyelitis C57BL/6 mouse model assessed as reduction in clock mRNA expression by RT-PCR analysis; assay type: functional
# [15] = target: T1, Nuclear receptor subfamily 1 group D member 1; assay: Agonist activity at REV-ERBalpha LBD in HEK293 cells co-transfected with pG5-UAS pCMV-Gal4 incubated for 18 hrs by multimode plate reader analysis; assay type: cell-based
half-life [1] [min],half-life [2] [min],EC50 [3] [µM],SMILES,further results
,,1,CC(C)Cn1cc(CCNS(=O)(=O)N(C)C)c2ccc(-c3ccccn3)cc21,inhibition at 10 µM (CYP3A4): 96%
,,0.16,CC(C)Cn1cc(CCNS(=O)(=O)N(C)C)c2ccc(-c3cccnc3)cc21,inhibition at 10 µM (CYP3A4): 96%
,,0.37,CC(C)Cn1cc(CCNS(=O)(=O)N(C)C)c2ccc(-c3cccc(C#N)c3)cc21,
,,2.9,CC(C)Cn1cc(CCNS(=O)(=O)N(C)C)c2ccc(-c3cncnc3)cc21,
,,0.79,CC(C)Cn1cc(CCNS(=O)(=O)N(C)C)c2ccc(-c3ccc(F)cc3)cc21,
,,> 5,CC(C)Cn1cc(CCNS(=O)(=O)N(C)C)c2ccc(-c3cnn(C)c3)cc21,

# Further lines, the compound ahead of its results:
SMILES,half-life [1] [min],half-life [2] [min],EC50 [3] [µM],further results
CC(C)Cn1cc(C(C)(C)NS(=O)(=O)C2CC2)c2ccc(-c3ccccc3C(F)(F)F)cc21,80,3,,
CC(C)Cn1cc(C(NS(=O)(=O)C2CC2)C(F)(F)F)c2ccc(-c3ccccc3C(F)(F)F)cc21 (stereo not given),76,32,0.11,inhibition at 10 µM (CYP2C9): < 30%; Activity (Th17): Active; Activity [4]: inactive; Activity (Mus musculus [5]): Active; Activity [6]: Non-Toxic; Activity (Mus musculus [7]): Active; inhibition at 10 µM (CYP2D6): < 30%; inhibition at 10 µM (CYP3A4): < 30%; Cmax [8]: ~0.8 µM; Activity (Mus musculus [9]): Active; Activity [10]: Non-Toxic; inhibition at 10 µM (CYP1A2): < 30%; Cmax [11]: 12.2 µM; Activity (Mus musculus [12]): Active; Activity (Mus musculus [13]): Active; Activity (Mus musculus [14]): Active; EC50 [15]: 0.5 µM
CC(C)Cn1cc(CCNS(=O)(=O)N(C)C)c2ccc(-c3ccccc3)cc21,,,,inhibition at 10 µM (CYP3A4): 22%
CC(C)Cn1cc(CNS(=O)(=O)C2CC2)c2ccc(-c3ccccc3C(F)(F)F)cc21,5,5,,
CC(C)Cn1cc(C(C)NS(=O)(=O)C2CC2)c2ccc(-c3ccccc3C(F)(F)F)cc21 (stereo not given),9,10,0.007,
CC(C)Cn1cc(CCNS(=O)(=O)C2CC2)c2ccc(-c3ccncc3)cc21,,,0.025,
CC(C)Cn1cc(CCNS(=O)(=O)C2CC2)c2ccc(-c3ccccc3C(F)(F)F)cc21,4,3,,
CC(C)Cn1cc(CCNS(=O)(=O)N(C)C)c2ccccc21,,,0.99,

# Source: ChEMBL document CHEMBL5370656, “Structure-Activity Relationship and Biological Investigation of a REV-ERBα-Selective Agonist SR-29065 (34) for Autoimmune Disorders” (J Med Chem, 2023)
